The text below walks through data of publication PMC10454243, “Anticancer Study of a Novel Pan-HDAC Inhibitor MPT0G236 in Colorectal Cancer Cells” (International Journal of Molecular Sciences, 2023).

For data set [1], the system named is HT-29 human colorectal cancer cells. Description: MTT cell viability assay, HT-29. It counts as cell-based. Conditions: read-out: IC50 cell viability.
The test system is the same in data set [2]. As to the kind of experiment: SRB cell proliferation (growth) assay, HT-29. Conditions: read-out: GI50 cell growth. The class given is cell-based. As for the experimental part:
(§1) The impacts of MPT0G236 on cell viability (A,C) and cell growth (B) were evaluated with HCT-116 and HT-29 human colorectal cancer cells, as well as human umbilical vein endothelial cells (HUVECs). The cells were treated with different concentrations of the compound for 48 h. Cell viability was measured using an MTT assay, while cell growth was assessed using an SRB assay. The data are shown as the mean ± SEM on the basis of three independent experiments. […] The basal cells were fixed with 10% (w/v) trichloroacetic acid for 10 min. […] After treatment, the cells were fixed with 10% TCA, stained with SRB at a concentration of 0.4% (w/v), and washed with 1% acetic acid. After drying, the stained cells were lysed with 10 mM Trizma base, and the absorbance was measured at a wavelength of 515 nm.

The test system of data set [3] is HCT-116 human colorectal cancer cells. As to the kind of experiment: SRB cell proliferation (growth) assay, HCT-116. Conditions: read-out: GI50 cell growth. It counts as cell-based. Here is the method:
as §1

The test system is the same in data set [4]. Description: MTT cell viability assay, HCT-116. The class given is cell-based. The conditions noted are these: 48 h. For orientation: Formazan colour is commonly taken as a measure of viable cells.
In another data set the test system is HCT-116 cells. Set-up: method as in PMID 27344487. Conditions: previous study, read-out: GI50 cell proliferation; cited from earlier work.
The next data set deals with HCT-116 tumor. Set-up: method as in PMID 27344487. The conditions noted are these: cited from earlier work.
The subject of the next data set is HDAC6. The arrangement: method as in PMID 27344487. Conditions: Class IIb; cited from earlier work.
The subject of another data set is A549 cells. Set-up: method as in PMID 27344487. The conditions noted are these: previous study, read-out: GI50 cell proliferation; cited from earlier work.
The test system of data set [5] is acetyl-α-tubulin and acetyl-histone H3 in HT-29 cells. As to the kind of experiment: Western blot of acetyl-α-tubulin and acetyl-histone H3, HT-29. The conditions noted are these: 24 h. The class given is cell-based, human. Here is the method:
(§2) Figure 2 MPT0G236 induced acetylation of α-tubulin and histone H3 in human colorectal cells. (A) The structure of MPT0G236. […] Protein expression was quantified by using the computerized image analysis application in ImageJ software V1.53k. The data are shown as the mean ± SEM on the basis of at least three independent experiments. * p < 0.05, ** p < 0.01, *** p < 0.001 and **** p < 0.0001 compared with the control group.
(§3) Cells were washed with PBS and incubated with lysis buffer (20 mM HEPES, pH 7.4; 2 mM EGTA; 0.1% Triton X-100; 50 mM β-glycerophosphate; 1 mM DTT; 10% glycerol; 1 μg/mL leupeptin; 1 mM sodium orthovanadate; 1 mM phenylmethylsulfonyl fluoride; 5 μg/mL aprotinin) for 10 min at 4 °C. The cells were then scraped off and incubated on ice for an additional 10 min before being centrifuged at 17,000× g for 30 min at 4 °C. The total protein […] was determined, and equal amounts of proteins were separated by […] on sodium dodecyl sulfate polyacrylamide gels (SDS-PAGE) and transferred onto a nitrocellulose membrane. […] Signals were detected with chemiluminescence reagents (GE Healthcare Corp., Buckinghamshire, UK), and the membranes were scanned using a ChemiDocTM MP Imaging System. Protein levels in the Western blots were then quantified using ImageJ software V1.53k.
For orientation: In western blotting, separated proteins are transferred to a membrane and probed.

In another data set the test system is PC-3 cells. The arrangement: method as in PMID 27344487. The conditions noted are these: previous study, read-out: GI50 cell proliferation; cited from earlier work.
The subject of a further data set is HDAC2. The arrangement: method as in PMID 27344487. The conditions noted are these: Class I; cited from earlier work.
Data set [6] concerns acetyl-α-tubulin and acetyl-histone H3 in HCT-116 cells. Description: Western blot of acetyl-α-tubulin and acetyl-histone H3, HCT-116. It counts as cell-based, human. Conditions: 24 h. As for the experimental part: as §2, §3
On the set-up of data set [7]: method as in PMID 27344487. The conditions noted are these: in vivo HCT-116 tumor study; cited from earlier work.
The target in a further data set is T1, HDAC3 (Homo sapiens, UniProt O15379).
T1 construct: purchased Reaction Biology Corp. (contract assay service)
T1 sequence (O15379 whole entry): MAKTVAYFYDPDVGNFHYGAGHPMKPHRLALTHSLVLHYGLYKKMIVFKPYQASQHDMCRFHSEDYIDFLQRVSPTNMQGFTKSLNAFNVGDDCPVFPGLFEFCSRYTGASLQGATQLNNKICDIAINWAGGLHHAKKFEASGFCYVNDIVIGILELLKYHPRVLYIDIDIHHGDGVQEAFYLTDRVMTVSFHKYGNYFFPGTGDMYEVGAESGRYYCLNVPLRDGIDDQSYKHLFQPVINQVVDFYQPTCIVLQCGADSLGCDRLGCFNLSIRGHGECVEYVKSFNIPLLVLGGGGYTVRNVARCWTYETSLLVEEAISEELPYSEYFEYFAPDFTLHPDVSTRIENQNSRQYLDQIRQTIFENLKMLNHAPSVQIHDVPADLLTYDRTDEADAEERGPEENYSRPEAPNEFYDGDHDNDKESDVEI
T1 sequence (Q9Y618 395-489 partner limits assumed): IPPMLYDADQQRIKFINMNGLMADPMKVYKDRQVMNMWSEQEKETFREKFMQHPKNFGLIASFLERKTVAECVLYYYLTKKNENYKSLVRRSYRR
Description: HDAC enzyme inhibition assay, HDAC3. The class given is biochemical. Conditions: Class I; Reaction Biology Corp. assay. As for the experimental part: (§4) HDAC activity inhibition assays were performed by Reaction Biology Corp. (Malvern, PA, USA).

Another data set addresses T2, HDAC4 (Homo sapiens, UniProt P56524).
T2 construct: purchased Reaction Biology Corp. (contract assay service)
Description: HDAC enzyme inhibition assay, HDAC4. It counts as biochemical. Conditions: Class IIa; Reaction Biology Corp. assay. Here is the method: as §4

The subject of a further data set is HDAC8. Conditions: Class I; cited from earlier work.
For another data set, the target named is T3, HDAC7 (Homo sapiens, UniProt Q8WUI4).
T3 construct: purchased Reaction Biology Corp. (contract assay service)
T3 sequence (Q8WUI4 1-952): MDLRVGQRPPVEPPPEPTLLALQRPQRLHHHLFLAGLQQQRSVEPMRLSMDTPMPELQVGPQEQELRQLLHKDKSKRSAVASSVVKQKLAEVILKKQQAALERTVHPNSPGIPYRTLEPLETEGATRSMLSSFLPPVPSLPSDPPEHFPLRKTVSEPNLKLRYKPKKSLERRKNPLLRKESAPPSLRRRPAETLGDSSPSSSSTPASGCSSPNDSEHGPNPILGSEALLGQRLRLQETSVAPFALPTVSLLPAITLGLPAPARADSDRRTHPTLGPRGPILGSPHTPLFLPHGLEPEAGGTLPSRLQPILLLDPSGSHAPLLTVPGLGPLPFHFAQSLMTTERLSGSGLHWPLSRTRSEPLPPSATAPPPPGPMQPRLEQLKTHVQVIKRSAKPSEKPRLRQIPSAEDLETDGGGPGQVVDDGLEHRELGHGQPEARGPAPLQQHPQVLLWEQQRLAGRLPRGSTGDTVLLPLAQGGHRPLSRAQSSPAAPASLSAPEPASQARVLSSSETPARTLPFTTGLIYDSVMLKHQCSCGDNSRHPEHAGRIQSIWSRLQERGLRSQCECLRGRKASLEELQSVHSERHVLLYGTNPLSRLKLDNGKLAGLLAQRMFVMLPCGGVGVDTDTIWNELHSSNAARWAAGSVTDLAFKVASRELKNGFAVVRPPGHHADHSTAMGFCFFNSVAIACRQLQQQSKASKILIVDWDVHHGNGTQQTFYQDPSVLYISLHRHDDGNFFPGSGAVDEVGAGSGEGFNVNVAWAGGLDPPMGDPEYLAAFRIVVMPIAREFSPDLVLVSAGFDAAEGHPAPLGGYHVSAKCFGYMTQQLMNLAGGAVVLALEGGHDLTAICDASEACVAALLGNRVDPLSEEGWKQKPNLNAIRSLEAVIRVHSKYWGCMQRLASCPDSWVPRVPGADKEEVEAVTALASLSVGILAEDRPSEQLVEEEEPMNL
Description: HDAC enzyme inhibition assay, HDAC7. The class given is biochemical. The conditions noted are these: Class IIa; Reaction Biology Corp. assay. Here is the method: as §4

The next data set relates to HDAC1. Set-up: method as in PMID 27344487. Conditions: Class I; cited from earlier work.
Another data set has as its target T4, HDAC5 (Homo sapiens, UniProt Q9UQL6).
T4 construct: purchased Reaction Biology Corp. (contract assay service)
Description: HDAC enzyme inhibition assay, HDAC5. Conditions: Class IIa; Reaction Biology Corp. assay. It counts as biochemical. As for the experimental part: as §4

The test system of data set [8] is human umbilical vein endothelial cells (HUVECs). Description: MTT cell viability assay, HUVEC. The class given is cell-based.
For the next data set, the target named is T5, HDAC9 (Homo sapiens, UniProt Q9UKV0).
T5 construct: purchased Reaction Biology Corp. (contract assay service)
T5 sequence (Q9UKV0 whole entry): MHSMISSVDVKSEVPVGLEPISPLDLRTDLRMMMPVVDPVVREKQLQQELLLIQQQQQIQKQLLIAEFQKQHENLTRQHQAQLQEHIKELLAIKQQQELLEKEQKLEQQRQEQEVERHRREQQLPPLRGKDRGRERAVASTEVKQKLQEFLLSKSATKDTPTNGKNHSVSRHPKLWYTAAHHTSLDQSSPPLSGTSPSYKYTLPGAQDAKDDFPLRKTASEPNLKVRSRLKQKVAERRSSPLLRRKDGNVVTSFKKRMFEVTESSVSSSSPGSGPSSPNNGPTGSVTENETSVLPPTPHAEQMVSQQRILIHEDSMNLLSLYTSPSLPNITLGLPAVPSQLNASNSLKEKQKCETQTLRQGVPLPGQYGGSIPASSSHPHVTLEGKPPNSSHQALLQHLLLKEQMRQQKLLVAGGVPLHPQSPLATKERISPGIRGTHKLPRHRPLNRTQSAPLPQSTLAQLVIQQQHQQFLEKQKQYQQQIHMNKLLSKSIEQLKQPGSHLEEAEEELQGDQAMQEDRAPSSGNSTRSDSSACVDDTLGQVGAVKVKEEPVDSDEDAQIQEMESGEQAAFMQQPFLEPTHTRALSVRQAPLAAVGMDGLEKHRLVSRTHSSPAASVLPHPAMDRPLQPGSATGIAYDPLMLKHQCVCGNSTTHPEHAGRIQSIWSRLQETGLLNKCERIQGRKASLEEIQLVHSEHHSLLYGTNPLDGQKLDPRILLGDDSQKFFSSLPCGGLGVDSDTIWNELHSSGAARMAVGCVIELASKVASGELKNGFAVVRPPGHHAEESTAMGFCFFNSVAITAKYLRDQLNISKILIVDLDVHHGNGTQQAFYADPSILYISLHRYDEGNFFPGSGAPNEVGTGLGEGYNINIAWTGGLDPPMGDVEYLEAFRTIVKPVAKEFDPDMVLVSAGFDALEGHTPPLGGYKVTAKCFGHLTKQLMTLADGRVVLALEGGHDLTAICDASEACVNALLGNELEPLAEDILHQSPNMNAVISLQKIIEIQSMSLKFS
As to the kind of experiment: HDAC enzyme inhibition assay, HDAC9. The class given is biochemical. The conditions noted are these: Class IIa; Reaction Biology Corp. assay. Here is the method: as §4

Each structure is given as a SMILES string. Like-named read-outs stand apart in the source and are kept apart here.

Broadly, the IC50 is the concentration at which inhibition is half-maximal.

T2 sequence (P56524 whole entry): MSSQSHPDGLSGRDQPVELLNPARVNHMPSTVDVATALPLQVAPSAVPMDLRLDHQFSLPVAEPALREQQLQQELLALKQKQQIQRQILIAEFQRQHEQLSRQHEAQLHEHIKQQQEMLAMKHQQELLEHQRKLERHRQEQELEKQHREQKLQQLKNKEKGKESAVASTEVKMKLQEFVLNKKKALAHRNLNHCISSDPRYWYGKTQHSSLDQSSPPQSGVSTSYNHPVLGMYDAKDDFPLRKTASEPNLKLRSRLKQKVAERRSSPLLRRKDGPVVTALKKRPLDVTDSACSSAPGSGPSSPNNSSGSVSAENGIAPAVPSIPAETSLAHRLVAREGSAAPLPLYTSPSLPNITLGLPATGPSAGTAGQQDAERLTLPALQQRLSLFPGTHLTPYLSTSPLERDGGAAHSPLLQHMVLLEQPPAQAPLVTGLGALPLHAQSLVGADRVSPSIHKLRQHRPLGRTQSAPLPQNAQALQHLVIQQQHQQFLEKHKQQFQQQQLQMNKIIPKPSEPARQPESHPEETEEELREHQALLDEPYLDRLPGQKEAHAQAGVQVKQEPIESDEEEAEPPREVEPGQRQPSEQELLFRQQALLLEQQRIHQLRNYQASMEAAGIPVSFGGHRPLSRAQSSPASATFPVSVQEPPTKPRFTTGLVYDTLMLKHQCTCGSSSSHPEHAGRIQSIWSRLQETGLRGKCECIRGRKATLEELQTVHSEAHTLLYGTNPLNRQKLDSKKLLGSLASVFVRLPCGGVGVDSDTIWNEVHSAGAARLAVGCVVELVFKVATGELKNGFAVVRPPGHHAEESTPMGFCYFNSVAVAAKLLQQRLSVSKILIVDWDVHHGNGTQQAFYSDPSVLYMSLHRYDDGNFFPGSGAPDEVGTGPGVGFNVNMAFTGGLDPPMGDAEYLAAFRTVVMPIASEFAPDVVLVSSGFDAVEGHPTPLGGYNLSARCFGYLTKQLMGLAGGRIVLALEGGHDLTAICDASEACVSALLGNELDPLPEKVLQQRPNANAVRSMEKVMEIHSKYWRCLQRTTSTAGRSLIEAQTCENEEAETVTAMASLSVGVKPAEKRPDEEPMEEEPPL
T4 sequence (Q9UQL6 whole entry): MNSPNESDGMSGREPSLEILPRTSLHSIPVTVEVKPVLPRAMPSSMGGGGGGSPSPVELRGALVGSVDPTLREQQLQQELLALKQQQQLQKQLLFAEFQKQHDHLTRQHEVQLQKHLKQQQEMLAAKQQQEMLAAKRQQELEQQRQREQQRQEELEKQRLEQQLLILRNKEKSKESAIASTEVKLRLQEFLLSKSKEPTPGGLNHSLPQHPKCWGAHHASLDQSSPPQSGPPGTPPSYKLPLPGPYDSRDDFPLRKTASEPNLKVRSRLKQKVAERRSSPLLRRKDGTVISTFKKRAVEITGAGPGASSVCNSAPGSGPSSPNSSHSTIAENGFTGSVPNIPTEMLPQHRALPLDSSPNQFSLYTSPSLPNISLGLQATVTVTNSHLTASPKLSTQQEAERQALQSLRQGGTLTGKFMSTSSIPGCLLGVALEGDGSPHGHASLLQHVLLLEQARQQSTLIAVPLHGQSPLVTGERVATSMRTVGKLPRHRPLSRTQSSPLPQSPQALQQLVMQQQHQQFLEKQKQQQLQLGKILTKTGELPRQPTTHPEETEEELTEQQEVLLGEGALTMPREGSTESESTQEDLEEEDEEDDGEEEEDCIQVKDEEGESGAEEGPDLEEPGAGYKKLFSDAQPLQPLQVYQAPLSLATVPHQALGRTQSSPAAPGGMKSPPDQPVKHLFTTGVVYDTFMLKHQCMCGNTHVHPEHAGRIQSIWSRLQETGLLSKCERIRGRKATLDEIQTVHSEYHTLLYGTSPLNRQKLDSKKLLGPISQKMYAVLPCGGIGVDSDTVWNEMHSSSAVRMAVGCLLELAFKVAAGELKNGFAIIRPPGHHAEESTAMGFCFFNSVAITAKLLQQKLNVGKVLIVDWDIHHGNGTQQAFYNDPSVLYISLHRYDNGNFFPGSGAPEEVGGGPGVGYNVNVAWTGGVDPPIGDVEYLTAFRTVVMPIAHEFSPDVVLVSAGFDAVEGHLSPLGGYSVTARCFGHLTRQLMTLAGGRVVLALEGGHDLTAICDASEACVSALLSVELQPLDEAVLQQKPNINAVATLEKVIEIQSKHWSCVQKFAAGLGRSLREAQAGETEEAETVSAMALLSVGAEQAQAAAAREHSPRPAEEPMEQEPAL

With `O=C(CCCCCCC(=O)Nc1ccccc1)NO` [SAHA, Suberoylanilide hydroxamic acid, reference compound], in data set [1] (HT-29, 48 h), the concentration for half-maximal inhibition (IC50) was 2310 nM. The GI50 in data set [2] (HT-29, 48 h) was determined as 470 nM; in data set [3] (HCT-116, 48 h), 630 nM.
Take `O=C(/C=C/c1cccc(S(=O)(=O)c2ccc3ccccc3n2)c1)NO` [MPT0G236]: the IC50 is 350 nM in [4]; 15 nM in the data set on HDAC6; 11.5 nM in the data set with HDAC2; 880 nM in data set [1] (HT-29, MTT, 48 h); 70 nM against HDAC3; 19700 nM against HDAC4. In addition, the IC50 is 130 nM with HDAC8; 12300 nM at HDAC7; 14 nM in the data set with HDAC1; 15500 nM on HDAC5; 15100 nM in data set [8] (Homo sapiens, HUVEC, 48 h); 12600 nM on HDAC9. The GI50 in the data set with HCT-116 cells is 80 ± 1 nM; in the data set on A549 cells, 270 ± 20 nM; with PC-3 cells, 150 ± 10 nM; in [2] (HT-29, SRB, 48 h) it was 310 nM; in [3] (HCT-116, SRB, 48 h) it was 100 nM. Moreover, the “HCT-116 tumor growth suppression” value in the data set with HCT-116 tumor (oral administration of 50 mg/kg) was 32.2%; in the data set on HCT-116 tumor (oral administration of 100 mg/kg), 58.8%. Moreover, the “concentration that significantly elevated acetyl-α-tubulin” value in [5] turned out to be 3 µM. For the same compound, the “concentration that significantly elevated histone acetylation” value in [5] stood at 1 µM. For the same compound, the “concentration that significantly increased accumulation of acetyl-α-tubulin” value in data set [6] was 0.3 µM. Moreover, the “concentration that significantly increased histone acetylation” value in [6] was 1 µM. Besides, the “effect on body weight” value in data set [7] is recorded as “without affecting body weight”. For the same compound, the “normal cells (HUVEC) less sensitive than colorectal cancer cells” value in data set [8] (HUVEC IC50 versus HCT-116 and HT-29 IC50) is on record as “more than 10 fold”.
